The record followed here is paper PMC4949444 (Scientific Reports, 2016).

In data set [1] the test system is N2a cells. Nature of the data set: Glutamate-induced excitotoxicity in N2a cells (MTT). The class given is cell-based. The note with it: 15 mM glutamate 24 h. The procedure: Figure 1 VCE-003.2 synthesis and characterization. (a) Schematic representation of VCE-003.2 synthesis. […] The indicated concentrations were tested and results were plotted to obtain the polynomial trend on a logarithmic range. IC50 values are indicated within the graph. […]. HEK293 cells were co-transfected with GAL4-PPARγ and GAL4-luc and incubated with the indicated compound concentrations for 6 hours prior to luciferase activity determination. Results are expressed as the fold induction ± S.D. relative to untreated control. (d) N2a cells were incubated with VCE-003 and VCE-003.2 as indicated during 24 hours and cell viability was determined by the MTT assay. Results are expressed as percentage of cell viability against the negative control (100%). (e) N2a cells were pre-treated with the compounds for 30 min and incubated during 24 h with 15 mM glutamate and cell viability determined by MTT. Results are expressed as percentage of cell viability against the negative control (100%). All experiments are shown as mean ± S.D. from at least three independent experiments. Statistics: *^,#,†p < 0.05, **^,##,††p < 0.01 and ***^,###p < 0.001. […] | Briefly, N2a cells were seeded at a density of 1 × 10^3 cells/well in 96-well plates, treated with increasing concentrations of VCE-003 or VCE-003.2 for 24 hours and cell viability was measured by the MTT method. […]. […]

In data set [2] the test system is HiB5 cells. In words: HiB5 neural progenitor cell viability (MTT). The class given is cell-based. As to the method: Figure 3 Prosurvival effect of VCE-003.2 in hippocampal neural progenitor HiB5 cells. (a,b) HiB5 cells in proliferative and differentiation conditions respectively were incubated with increasing concentrations of VCE-003.2 and cell viability was assessed using the MTT test after 48 h. (c) Cell viability and ERK1/2 phosphorylation status (activation) was determined in VCE-003.2-treated cells in the absence or presence of GW9662 (5 μM). (d) VCE-003.2 time-dependent regulation of the ERK, Akt and mTORC1 signaling pathways were determined by incubation with anti-phospho-ERK, phospho-Akt and phospho-S6 antibodies. Loading control was performed with α-tubulin antibody. Representative western blots and densitometry quantification of three independent experiments are shown. Values are expressed as means ± S.D. *p < 0.05; **p < 0.01 vs. Vehicle; ^#p < 0.05 vs. VCE-003.2.
The HiB5 hippocampal progenitor cell line (kindly provided by Prof. Z. Kokaia, Lund Stem Cell Center, Sweden) was grown as described[46] in DMEM supplemented with 2 mM glutamine, 1% penicillin/streptomycin and 10% (v/v) fetal calf serum (FCS; Lonza, Switzerland). HiB5 cell cultures were incubated in 5% CO2 at 33 °C, the proliferation-permissive temperature of the oncogenic tsA58 allele of the SV40 large T antigen. Incubation at 37 °C loss of proliferative capacity and neural differentiation. Cell viability was determined after 24 h using the 3-[4,5-dimethylthiazol-2-yl]-2,5-diphenyltetrazolium bromide (MTT) […]. Immortalized mouse striatal STHdh cells (kindly provided by S. Gines, U. Barcelona, Spain) were cultured as described. Cell were transiently transfected with 10 μg doxycycline-inducible CFP-huntingtin-94Q using Amaxa´s Nucleofector following the instructions of the manufacturer (Lonza). In addition STHdh^Q7/Q7 and STHdh^Q111/Q111 expressing endogenous levels of full-length huntingtin with 7 glutamines or 111 glutamines in the protein N-terminal domain, respectively, were used. […]

The subject of data set [3] is STHdh^Q111/Q111. In words: Serum deprivation survival of STHdh Q111/Q111 striatal neuroblasts (MTT). The class given is cell-based, mouse. The note with it: STHdh Q111/Q111, 72 h. The procedure:
Figure 4 In vitro neuroprotective action of VCE-003.2. (a) HiB5 cells were treated with quinolinic acid (QA; 2,5 mM) in the presence or the absence of VCE-003.2 (50 and 250 nM) and cell viability was determined after 24 h by the MTT assay. (b) QA-induced apoptosis measured by cleaved caspase 3 immunostaining (upper panel) of differentiating HiB5 cells was quantified in the presence or absence of VCE-003.2 (250 nM). Cell counts were referred to total cell nuclei counterstained with DAPI and c-caspase3^+ cell quantification is shown in the lower panel. […]. (d) Aggregation of mut-Htt was assessed by fluorescence microscopy in immortalized striatal STHdh transfected cells with a CFP-tagged expression vector of mutant huntingtin (mut-Htt) and counterstained with fluorescent phalloidin (upper panel). […]. Results are representative of three independent experiments. Values are expressed as means ± S. D. *p < 0.05 and ***p < 0.001 vs. Vehicle; ^#p < 0.05 ^##p < 0.01 vs. QA. […]
The HiB5 hippocampal progenitor cell line (kindly provided by Prof. Z. Kokaia, Lund Stem Cell Center, Sweden) was grown as described[46] in DMEM supplemented with 2 mM glutamine, 1% penicillin/streptomycin and 10% (v/v) fetal calf serum (FCS; Lonza, Switzerland). […] Cell viability was determined after 24 h using the 3-[4,5-dimethylthiazol-2-yl]-2,5-diphenyltetrazolium bromide (MTT) tesresults int. […]

In the case of `CCCCCC1=C(NCC)C(=O)C(C/C=C(\C)CCC=C(C)C)=C(O)C1=O` [VCE-003.2], the “prevention of glutamate-induced excitotoxicity” value in data set [1] is given as “able to prevent excitotoxicity induced by glutamate”. In addition, in data set [2] (HiB5, 50 nM to 50 μM, MTT), the “cell viability, proliferative conditions” value is reported as “not toxic even at the highest concentrations employed”. Further, the “cell viability during neuronal differentiation” value in data set [2] (HiB5, differentiation conditions, increasing concentrations, MTT) is “exerted a prosurvival activity at lower concentrations, while at high concentrations it was toxic and reduced cell viability”. For the same compound, the “prosurvival action in presence of PPARγ antagonist” value in data set [2] (VCE-003.2 250 nM + GW9662 5 μM) is listed as “prevented”. The “neuronal viability after serum deprivation” value in data set [3] was “improved”.
